{
  "source": "patent US20210063414A1",
  "about": "“METHODS FOR PREVENTING AND/OR TREATING BONE LOSS CONDITIONS BY MODULATING IRISIN” (Dana-Farber Cancer Institute, Inc., priority 2018, published 2021)",
  "molecular_target": "T1, integrin αV/β5 (Homo sapiens, UniProt P06756+P18084)",
  "T1 construct": "expressed in transfected cells; host or cells: HEK293T",
  "T1 sequence (P06756 31-889 limits assumed)": "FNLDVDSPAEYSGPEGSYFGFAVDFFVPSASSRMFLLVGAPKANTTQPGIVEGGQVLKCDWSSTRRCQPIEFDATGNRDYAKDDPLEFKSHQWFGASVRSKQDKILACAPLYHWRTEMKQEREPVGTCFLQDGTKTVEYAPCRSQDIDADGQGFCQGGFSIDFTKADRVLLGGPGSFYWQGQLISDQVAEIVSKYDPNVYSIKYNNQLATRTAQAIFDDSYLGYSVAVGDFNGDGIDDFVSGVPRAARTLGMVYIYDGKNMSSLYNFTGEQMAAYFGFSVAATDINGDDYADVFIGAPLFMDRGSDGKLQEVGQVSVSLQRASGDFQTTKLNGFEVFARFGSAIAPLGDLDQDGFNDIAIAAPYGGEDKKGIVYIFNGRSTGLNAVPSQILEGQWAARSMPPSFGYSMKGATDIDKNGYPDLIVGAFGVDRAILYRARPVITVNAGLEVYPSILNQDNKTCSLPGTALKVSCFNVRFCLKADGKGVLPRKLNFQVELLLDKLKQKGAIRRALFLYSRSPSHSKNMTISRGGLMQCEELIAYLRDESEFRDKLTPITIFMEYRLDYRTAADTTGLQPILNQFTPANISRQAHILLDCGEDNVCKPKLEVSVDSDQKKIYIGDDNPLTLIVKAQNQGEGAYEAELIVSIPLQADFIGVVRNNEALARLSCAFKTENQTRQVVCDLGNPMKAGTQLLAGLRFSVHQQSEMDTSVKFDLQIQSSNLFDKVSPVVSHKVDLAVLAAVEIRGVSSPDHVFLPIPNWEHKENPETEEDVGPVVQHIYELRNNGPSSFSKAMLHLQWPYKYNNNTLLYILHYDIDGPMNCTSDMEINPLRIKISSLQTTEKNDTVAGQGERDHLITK",
  "T1 sequence (P06756 891-1048 partner limits assumed)": "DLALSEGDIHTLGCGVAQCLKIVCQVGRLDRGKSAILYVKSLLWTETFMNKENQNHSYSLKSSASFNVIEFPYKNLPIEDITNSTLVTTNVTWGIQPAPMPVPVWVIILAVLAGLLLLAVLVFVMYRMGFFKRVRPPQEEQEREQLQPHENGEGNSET",
  "T1 sequence (P18084 24-799)": "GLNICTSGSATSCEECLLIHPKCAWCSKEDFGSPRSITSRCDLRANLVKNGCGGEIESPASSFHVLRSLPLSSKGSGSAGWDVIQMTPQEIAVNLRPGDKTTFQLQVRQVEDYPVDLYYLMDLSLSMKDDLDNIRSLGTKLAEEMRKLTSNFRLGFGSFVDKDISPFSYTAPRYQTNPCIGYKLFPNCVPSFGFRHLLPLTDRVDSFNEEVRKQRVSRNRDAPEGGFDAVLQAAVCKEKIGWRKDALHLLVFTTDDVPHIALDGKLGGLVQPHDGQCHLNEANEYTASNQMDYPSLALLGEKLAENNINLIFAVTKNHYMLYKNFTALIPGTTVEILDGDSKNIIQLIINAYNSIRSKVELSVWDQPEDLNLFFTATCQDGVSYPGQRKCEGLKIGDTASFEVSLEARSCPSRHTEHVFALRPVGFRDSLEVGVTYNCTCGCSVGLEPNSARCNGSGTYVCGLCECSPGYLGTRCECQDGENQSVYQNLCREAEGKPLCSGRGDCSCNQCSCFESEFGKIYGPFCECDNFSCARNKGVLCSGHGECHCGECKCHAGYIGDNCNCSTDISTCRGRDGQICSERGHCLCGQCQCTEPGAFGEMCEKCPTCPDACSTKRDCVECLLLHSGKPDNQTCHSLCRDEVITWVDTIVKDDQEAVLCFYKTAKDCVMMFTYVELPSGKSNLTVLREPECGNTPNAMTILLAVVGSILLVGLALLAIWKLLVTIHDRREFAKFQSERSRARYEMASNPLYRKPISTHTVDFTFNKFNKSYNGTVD",
  "experiment": "FAK phosphorylation in HEK293T cells with forced expression of integrin αV/β5",
  "assay_type": "cell-based",
  "experimental": "100 nM irisin was incubated with 5 nM indicated his-tag integrins followed by immunoprecipitation using Ni-NTA agaroses. Precipitated integrins and co-precipitated irisin were analyzed by immunoblot analysis. […] HEK293T cells were seeded and incubated until 50% cell density. The cells were transfected with 0.1 μg plasmids of indicated integrins. After 48 hours, the cells were incubated with Freestyle293 medium for 3 hours and were treated with indicated concentration of irisin for 5 minutes. Cells were lysed to detect the indicated protein level using immunoblot analysis. […] MLO-Y4 cells were treated as described in FIG. 2D with addition of pretreatment of indicated antagonistic antibodies for 10 minutes. Cells were lysed to detect the indicated protein level using immunoblot analysis. […] MLO-Y4 cells were treated as described in FIG. 1B except with addition of the pretreatment of indicated antagonistic antibodies for 10 minutes. Sclerostin mRNA level was analyzed by qRT-PCR. Cyclophilin was used for house-keeping gene. […] The ribbon diagram is colored by HDX stabilization/destabilization. Percentages of deuterium differences are color-coded according to the smooth color gradient key at the bottom. Crystal structure of irisin dimer is from Protein Data Bank (PDB) (4 lsd) and a homology model of integrin β5 was built based on integrin β3 structure from PDB (4MMX).\n100 nM irisin was incubated with 5 nM indicated his-tag integrins followed by immunoprecipitation using Ni-NTA agaroses. Precipitated integrins and co-precipitated irisin were analyzed by immunoblot analysis. […] HEK293T cells were seeded and incubated until 50% cell density. The cells were transfected with 0.1 μg plasmids of indicated integrins. After 48 hours, the cells were re-split to indicated dose of vitronectin-coated plates. Cells were incubated with culture medium for 3 hours. Cells were lysed to detect the indicated protein level using immunoblot analysis. FIG. 15C and FIG. 15D show the immunoblot data. Cells were treated and analyzed as FIG. 14B except using plasmids encoding integrin α5/β1 or integrin α11/β1 (FIG. 15C) integrin αV/β1(FIG. 15D).\nMLO-Y4 cells were treated and analyzed as described in FIG. 5A with addition of pretreatment of control RGD peptide, cyclo RGDyK (cRGDyK), or SB273005. […] HEK293 cells were treated and analyzed as described in FIG. 14B except the treatment of different dose of cyclo RGDyK. […] 8 weeks old male mice were treated and analyzed as described in FIG. 5D except the additional group with co-injection of 1 mg/kg SB273005. […]\nCells were harvested in RIPA buffer containing protease-inhibitor cocktail and phosphataseinhibitor cocktail. […] Protein levels were analyzed via western blot using indicated antibody. […]",
  "data": [
    {"smiles": "N=C(N)NCCC[C@@H]1NC(=O)[C@H](CCCCN)NC(=O)[C@@H](Cc2ccc(O)cc2)NC(=O)[C@H](CC(=O)O)NC(=O)CNC1=O", "note": "[cyclo RGDyK]", "values": [
      {"measurement": "effect on irisin-induced phosphorylation of FAK", "setting": "HEK293T integrin αV/β5, 10 nM cyclo RGDyK", "value": "prevented phosphorylation of FAK significantly"},
      {"measurement": "effect on irisin-induced phosphorylation of FAK", "setting": "HEK293T integrin αV/β5, 100 nM cyclo RGDyK", "value": "blocked the phosphorylation completely"},
      {"measurement": "IC50", "setting": "HEK293T with forced expression of integrin αV/β5, in the presence of irisin, from immunoblot, read-out: IC50 for blocking irisin-integrin αV/β5 signaling (phosphorylation of FAK)", "value": "10 to 50", "unit": "nM"}
    ]}
  ]
}
